Data as given in patent publication US9133204B2, “5-membered heterocyclic amides and related compounds” (H. Lundbeck A/S, priority 2007, dated 2015).

target: T1, P2X7 receptor (Homo sapiens, UniProt Q99572); assay: High throughput P2X7 calcium mobilization assay (Example 4A); format: cell-based; conditions: SH-SY5Y cells; 50% decrease in fluorescence response of cells exposed to 80 μM BzATP; Table I
T1 construct: host or cells: SH-SY5Y
T1 sequence (Q99572 1-595): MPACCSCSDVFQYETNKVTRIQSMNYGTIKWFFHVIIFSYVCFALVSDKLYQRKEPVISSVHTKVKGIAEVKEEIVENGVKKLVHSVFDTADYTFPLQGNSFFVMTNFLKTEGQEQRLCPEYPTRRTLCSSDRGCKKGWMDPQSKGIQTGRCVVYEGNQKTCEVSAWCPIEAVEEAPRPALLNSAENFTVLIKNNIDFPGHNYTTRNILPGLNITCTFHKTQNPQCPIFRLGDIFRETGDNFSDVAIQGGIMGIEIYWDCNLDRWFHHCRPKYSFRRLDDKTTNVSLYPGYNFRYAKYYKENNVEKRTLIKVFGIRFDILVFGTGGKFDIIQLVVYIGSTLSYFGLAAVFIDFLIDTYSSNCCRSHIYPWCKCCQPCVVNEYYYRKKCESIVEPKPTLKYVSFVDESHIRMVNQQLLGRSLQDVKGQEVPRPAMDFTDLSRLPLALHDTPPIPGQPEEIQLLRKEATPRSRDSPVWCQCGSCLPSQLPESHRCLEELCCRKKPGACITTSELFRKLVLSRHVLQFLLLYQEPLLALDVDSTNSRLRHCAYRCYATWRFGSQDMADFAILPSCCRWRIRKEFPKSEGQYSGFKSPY
Outline: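 SH-SY5Y cells loaded with 2.3 μM Fluo-4 AM for 1 h at 37 °C, then preincubated 1 h at room temperature with test compound (final 1–2500 nM) in low-sodium sucrose buffer, pH 7.4. Antagonism measured against 80 μM BzATP (about EC50) as peak FLIPR calcium fluorescence over 2 min, corrected by no-agonist background.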

| SMILES | IC50 [nM] |
| --- | --- |
| Cn1ccnc1-n1cc(C(=O)NCC23CC4CC(CC(C4)C2)C3)c(C(F)(F)F)n1 [Compound 142, N-(adamantan-1-ylmethyl)-1-(1-methyl-1H-imidazol-2-yl)-3-(trifluoromethyl)-1H-pyrazole-4-carboxamide] | ≤ 2000 |
| O=C(NCC1(c2cccnc2)CCCCC1)c1cn(-c2ncccn2)nc1C(F)(F)F [Compound 151, N-[(1-pyridin-3-ylcyclohexyl)methyl]-1-pyrimidin-2-yl-3-(trifluoromethyl)-1H-pyrazole-4-carboxamide] | ≤ 2000 |
| O=C(NCC12CC3CC(CC(C3)C1)C2)c1cn(-c2cc(=O)[nH]cn2)nc1C(F)(F)F [Compound 153, N-(adamantan-1-ylmethyl)-1-(6-oxo-1,6-dihydropyrimidin-4-yl)-3-(trifluoromethyl)-1H-pyrazole-4-carboxamide] | ≤ 2000 |
| Nc1nc(-n2cc(C(=O)NCC3(O)CCCCCC3)c(C(F)(F)F)n2)ncc1F [Compound 154, 1-(4-amino-5-fluoropyrimidin-2-yl)-N-[(1-hydroxycycloheptyl)methyl]-3-(trifluoromethyl)-1H-pyrazole-4-carboxamide] | ≤ 2000 |
| Cc1cnc(-n2cc(C(=O)NCC3(c4cccnc4)CCCCC3)c(C(F)(F)F)n2)nc1N [Compound 156, 1-(4-amino-5-methylpyrimidin-2-yl)-N-[(1-pyridin-3-ylcyclohexyl)methyl]-3-(trifluoromethyl)-1H-pyrazole-4-carboxamide] | ≤ 2000 |
| Cc1ccc(C2(CNC(=O)c3sc(-c4ncccn4)nc3C(F)(F)F)CCCCC2)cn1 [Compound 158, N-{[1-(6-methylpyridin-3-yl)cyclohexyl]methyl}-2-pyrimidin-2-yl-4-(trifluoromethyl)-1,3-thiazole-5-carboxamide] | ≤ 2000 |
| O=C(NCC1(N2CCOCC2)CCCCC1)c1sc(-c2ncccn2)nc1C(F)(F)F [Compound 159, N-[(1-morpholin-4-ylcyclohexyl)methyl]-2-pyrimidin-2-yl-4-(trifluoromethyl)-1,3-thiazole-5-carboxamide] | ≤ 2000 |
| O=C(NCC1(c2cccnc2)CCCCC1)c1sc(-c2ncccn2)nc1C(F)(F)F [Compound 161, N-[(1-pyridin-3-ylcyclohexyl)methyl]-2-pyrimidin-2-yl-4-(trifluoromethyl)-1,3-thiazole-5-carboxamide] | ≤ 2000 |
| N[C@@H]1CCN(C2(CNC(=O)c3sc(-c4ncccn4)nc3C(F)(F)F)CCCCC2)C1 [Compound 162, N-({1-[(3R)-3-aminopyrrolidin-1-yl]cyclohexyl}methyl)-2-pyrimidin-2-yl-4-(trifluoromethyl)-1,3-thiazole-5-carboxamide] | ≤ 2000 |
| CC(C)CC(CNC(=O)c1sc(-c2cccnc2)nc1C(F)(F)F)c1ccc(C(F)(F)F)cc1 (stereo not drawn) [Compound 165, N-{4-methyl-2-[4-(trifluoromethyl)phenyl]pentyl}-2-pyridin-3-yl-4-(trifluoromethyl)-1,3-thiazole-5-carboxamide] | ≤ 2000 |
| Nc1nc(-n2cc(C(=O)NCC3(c4ccc(Cl)cc4)CCC3)c(C(F)(F)F)n2)ncc1F [Compound 167, 1-(4-amino-5-fluoropyrimidin-2-yl)-N-{[1-(4-chlorophenyl)cyclobutyl]methyl}-3-(trifluoromethyl)-1H-pyrazole-4-carboxamide] | ≤ 2000 |
| COc1ccc(C2(CNC(=O)c3cn(-c4ncc(F)c(N)n4)nc3C(F)(F)F)CCCCC2)cc1 [Compound 168, 1-(4-amino-5-fluoropyrimidin-2-yl)-N-{[1-(4-methoxyphenyl)cyclohexyl]methyl}-3-(trifluoromethyl)-1H-pyrazole-4-carboxamide] | ≤ 2000 |
| Nc1nc(-n2cc(C(=O)NCC(O)C34CC5CC(CC(C5)C3)C4)c(C(F)(F)F)n2)ncc1F (stereo not drawn) [Compound 169, N-(2-adamantan-1-yl-2-hydroxyethyl)-1-(4-amino-5-fluoropyrimidin-2-yl)-3-(trifluoromethyl)-1H-pyrazole-4-carboxamide] | ≤ 2000 |
| Cc1cnc(-n2cc(C(=O)NCC3(c4ccc(C(F)(F)F)cc4)CCCCC3)c(C)n2)nc1N [Compound 170, 1-(4-amino-5-methylpyrimidin-2-yl)-3-methyl-N-({1-[4-(trifluoromethyl)phenyl]cyclohexyl}methyl)-1H-pyrazole-4-carboxamide] | ≤ 2000 |

Further lines, results first:

| IC50 [nM] | SMILES |
| --- | --- |
| ≤ 2000 | COc1ccc(-n2cc(C(=O)NCC34CC5CC(CC(C5)C3)C4)c(C(C)C)n2)nn1 [Compound 143, N-(adamantan-1-ylmethyl)-3-isopropyl-1-(6-methoxypyridazin-3-yl)-1H-pyrazole-4-carboxamide] |
| ≤ 2000 | Nc1nc(-n2cc(C(=O)NCC3(N4CCOCC4)CCCCC3)c(C(F)(F)F)n2)ncc1F [Compound 144, 1-(4-amino-5-fluoropyrimidin-2-yl)-N-[(1-morpholin-4-ylcyclohexyl)methyl]-3-(trifluoromethyl)-1H-pyrazole-4-carboxamide] |
| ≤ 2000 | O=C(NCC12CC3CC(CC(C3)C1)C2)c1cn(-c2ncccn2)nc1C1CC1 [Compound 145, N-(adamantan-1-ylmethyl)-3-cyclopropyl-1-pyrimidin-2-yl-1H-pyrazole-4-carboxamide] |
| ≤ 2000 | Nc1ccnc(-n2cc(C(=O)NCC34CC5CC(CC(C5)C3)C4)c(C3CC3)n2)n1 [Compound 146, N-(adamantan-1-ylmethyl)-1-(4-aminopyrimidin-2-yl)-3-cyclopropyl-1H-pyrazole-4-carboxamide] |
| ≤ 2000 | Nc1nccnc1-n1cc(C(=O)NCC23CC4CC(CC(C4)C2)C3)c(C(F)(F)F)n1 [Compound 147, N-(adamantan-1-ylmethyl)-1-(3-aminopyrazin-2-yl)-3-(trifluoromethyl)-1H-pyrazole-4-carboxamide] |
| ≤ 2000 | Nc1cnc(-n2cc(C(=O)NCC34CC5CC(CC(C5)C3)C4)c(C(F)(F)F)n2)cn1 [Compound 148, N-(adamantan-1-ylmethyl)-1-(5-aminopyrazin-2-yl)-3-(trifluoromethyl)-1H-pyrazole-4-carboxamide] |
| ≤ 2000 | CC(CNC(=O)c1cn(-c2ncc(F)c(N)n2)nc1C(F)(F)F)c1ccc(Cl)cc1 (stereo not drawn) [Compound 149, 1-(4-amino-5-fluoropyrimidin-2-yl)-N-[2-(4-chlorophenyl)propyl]-3-(trifluoromethyl)-1H-pyrazole-4-carboxamide] |
| ≤ 2000 | CCCC(CNC(=O)c1cn(-c2ncc(F)c(N)n2)nc1C(F)(F)F)c1ccc(Cl)cc1 (stereo not drawn) [Compound 150, 1-(4-amino-5-fluoropyrimidin-2-yl)-N-[2-(4-chlorophenyl)pentyl]-3-(trifluoromethyl)-1H-pyrazole-4-carboxamide] |
| ≤ 2000 | O=C(NCC1(c2cccnc2)CCCCC1)c1cn(-c2ncc(F)cn2)nc1C(F)(F)F [Compound 152, 1-(5-fluoropyrimidin-2-yl)-N-[(1-pyridin-3-ylcyclohexyl)methyl]-3-(trifluoromethyl)-1H-pyrazole-4-carboxamide] |
| ≤ 2000 | Nc1ccnc(-n2cc(C(=O)NCC3(c4cccnc4)CCCCC3)c(C(F)(F)F)n2)n1 [Compound 155, 1-(4-aminopyrimidin-2-yl)-N-[(1-pyridin-3-ylcyclohexyl)methyl]-3-(trifluoromethyl)-1H-pyrazole-4-carboxamide] |
| ≤ 2000 | Nc1nccnc1-n1cc(C(=O)NCC2(c3cccnc3)CCCCC2)c(C(F)(F)F)n1 [Compound 157, 1-(3-aminopyrazin-2-yl)-N-[(1-pyridin-3-ylcyclohexyl)methyl]-3-(trifluoromethyl)-1H-pyrazole-4-carboxamide] |
| ≤ 2000 | CCCC(CNC(=O)c1sc(-c2ncccn2)nc1C(F)(F)F)c1ccc(Cl)cc1 (stereo not drawn) [Compound 160, N-[2-(4-chlorophenyl)pentyl]-2-pyrimidin-2-yl-4-(trifluoromethyl)-1,3-thiazole-5-carboxamide] |
| ≤ 2000 | CC(C)CC(CNC(=O)c1sc(N2CC[C@@H](N(C)C)C2)nc1C(F)(F)F)c1ccc(C(F)(F)F)cc1 (stereo partly drawn) [Compound 163, 2-[(3R)-3-(dimethylamino)pyrrolidin-1-yl]-N-{4-methyl-2-[4-(trifluoromethyl)phenyl]pentyl}-4-(trifluoromethyl)-1,3-thiazole-5-carboxamide] |
| ≤ 2000 | O=C(NCC1(c2cccnc2)CCCCC1)c1sc(-c2cccnc2)nc1C(F)(F)F [Compound 164, 2-pyridin-3-yl-N-[(1-pyridin-3-ylcyclohexyl)methyl]-4-(trifluoromethyl)-1,3-thiazole-5-carboxamide] |
| ≤ 2000 | CCc1nc(-c2cccnc2)sc1C(=O)NCC1(c2cccnc2)CCCCC1 [Compound 166, 4-ethyl-2-pyridin-3-yl-N-[(1-pyridin-3-ylcyclohexyl)methyl]-1,3-thiazole-5-carboxamide] |
| ≤ 2000 | Cc1cnc(-n2cc(C(=O)NCC(CC(C)C)c3ccc(C(F)(F)F)cc3)c(C(F)(F)F)n2)nc1N (stereo not drawn) [Compound 171, 1-(4-amino-5-methylpyrimidin-2-yl)-N-{4-methyl-2-[4-(trifluoromethyl)phenyl]pentyl}-3-(trifluoromethyl)-1H-pyrazole-4-carboxamide] |
